Reference: BindingDB's records for doi:10.7270/Q2NS0SCW (Burnham Center For Chemical Genomics, 2010)

target: Alkaline phosphatase, placental type (Homo sapiens, UniProt P05187); test: PLAP enzyme inhibitors, dose response, selectivity assay for mouse IAP inhibitor project, biochemical, uHTS hits (AID 488879)
Sequence (P05187 whole entry, looked up): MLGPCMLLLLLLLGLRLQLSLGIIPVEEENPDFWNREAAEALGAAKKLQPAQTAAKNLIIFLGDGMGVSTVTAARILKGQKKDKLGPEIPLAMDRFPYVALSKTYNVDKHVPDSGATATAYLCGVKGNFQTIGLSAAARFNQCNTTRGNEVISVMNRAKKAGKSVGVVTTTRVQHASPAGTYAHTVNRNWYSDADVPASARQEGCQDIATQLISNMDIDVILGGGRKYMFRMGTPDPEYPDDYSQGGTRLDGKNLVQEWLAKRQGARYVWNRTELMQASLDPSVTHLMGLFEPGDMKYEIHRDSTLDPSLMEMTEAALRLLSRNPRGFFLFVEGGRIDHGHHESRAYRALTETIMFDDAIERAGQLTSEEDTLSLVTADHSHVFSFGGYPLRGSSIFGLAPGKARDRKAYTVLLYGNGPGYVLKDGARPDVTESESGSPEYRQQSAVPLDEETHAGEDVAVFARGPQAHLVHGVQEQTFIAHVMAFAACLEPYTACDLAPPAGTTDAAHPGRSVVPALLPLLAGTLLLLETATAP

| Structure (SMILES) | IC50 [µM] |
| --- | --- |
| Cc1ccc(Cl)c2c1NC(=O)/C2=C1/NC(=S)NC1=O | > 100 |
| Cc1ccc(/C=C2\SC(=S)N(/N=C/C3C=C([N+](=O)[O-])C=CC3=O)C2=O)o1 (stereo not given) [(5Z)-5-[(5-methylfuran-2-yl)methylidene]-3-[[(E)-(3-nitro-6-oxocyclohexa-2,4-dien-1-ylidene)methyl]amino]-2-sulfanylidene-1,3-thiazolidin-4-one] | > 100 |
| NS(=O)(=O)c1ccc(N=Nc2c(=O)[nH]n3c(=O)c4c([nH]c23)CCCC4)cc1 [SMR000231775] | 21.8 |
| O=C1C=CC(C=NNC(=S)Nc2ccccc2[N+](=O)[O-])C=C1O (stereo not given) [MLS000417596] | > 100 |
| COc1cc(C=Nn2c(O)csc2=S)ccc1O [3-[[(E)-(3-methoxy-4-oxidanylidene-cyclohexa-2,5-dien-1-ylidene)methyl]amino]-2-sulfanylidene-1,3-thiazolidin-4-one] | > 100 |
| O=c1cc(O)cc2oc(-c3ccc(O)c(O)c3)c(O[C@@H]3O[C@H](CO)[C@@H](O)[C@H](O)[C@H]3O)c(O)c1-2 [Quercetin 3-O-beta-D-glucoside] | > 100 |
| COc1cc(C=CC(=O)CC(=O)C=Cc2ccc(O)cc2)ccc1O [demethoxycurcumin] | > 100 |
| O=C(Nn1c(O)csc1=S)C(=O)Nn1c(O)csc1=S [SMR000349781] | > 100 |
| Oc1ccc(C=Nn2c(O)csc2=S)c(O)c1O [3-[[(E)-[2,3-bis(oxidanyl)-4-oxidanylidene-cyclohexa-2,5-dien-1-ylidene]methyl]amino]-2-sulfanylidene-1,3-thiazolidin-4-one] | > 100 |
| C#CCOCCOCCOCCNc1nc(N2CCN(C(=O)CCCCCCCCCCNC(=O)[C@H]([C@@H](C)CC)n3cc(CCCCN=C(N)N)nn3)CC2)nc(N2CCN(C(=O)CCCCCCCCCCNC(=O)[C@@H]([C@H](C)O)n3cc(C)nn3)CC2)n1 [GT-RI] | > 100 |
| C#CCOCCOCCOCCNc1nc(N2CCN(C(=O)CCCCCCCCCCNC(=O)[C@@H](CCSC)n3cc(CCO)nn3)CC2)nc(N2CCN(C(=O)CCCCCCCCCCNC(=O)[C@H]([C@@H](C)CC)n3cc(CCCCCN)nn3)CC2)n1 [MLS002153719] | > 100 |
| CC1NON=C1C(=O)NN=CC1=CC(=O)C(=O)C=C1 (stereo not given) [4-Methyl-furazan-3-carboxylic acid (3,4-dihydroxy-benzylidene)-hydrazide] | 18 |
| Nc1nnc(CC(=O)N/N=C/C2C=C([N+](=O)[O-])C=C(Br)C2=O)s1 (stereo not given) [2-(5-azanyl-1,3,4-thiadiazol-2-yl)-N'-[(E)-(5-bromanyl-3-nitro-6-oxidanylidene-cyclohexa-2,4-dien-1-ylidene)methyl]ethanehydrazide] | > 100 |
| NS(=O)(=O)c1cc(C(=O)NNC2=c3ccccc3=NC2=O)ccc1Cl [2-chloro-5-[[(2-oxoindol-3-yl)amino]carbamoyl]benzenesulfonamide] | > 100 |

target: not listed separately; test: as above

| Structure (SMILES) | IC50 [µM] |
| --- | --- |
| O=C1Nc2ccccc2/C1=C1/SC(=S)N(NC(=O)c2ccccc2)C1=O [N-[(5Z)-4-oxo-5-(2-oxo-1H-indol-3-ylidene)-2-sulfanylidene-3-thiazolidinyl]benzamide] | 5.31 |
